Assay results from US9387199B2, “Compositions and methods for treating clostridium infection and preventing recurrence of infection” (priority 2013, dated 2016).

Assays:
[1] = uninfected mice, 5-day course of drug alone
C. difficile VPI 10463 [2] = assay: Cecal clostridial (tcdB qPCR) and toxin (TcdA/TcdB ELISA) burden in the murine CDI model; format: in vivo, C57BL/6 mice
Method: Food and water were allowed ad libitum. […] Stool specimens were collected daily.
Genomic DNA was extracted from the stool or cecal samples using a modified protocol for the QIAamp DNA stool minikits (Qiagen). Stool lysis buffer (400 μl) was added to a frozen stool sample-diluent (from enzyme-linked immunosorbent assay [ELISA]) mixture. Samples were then vortexed for 15 s and incubated at 82.5° C. for 5 min. The samples were vortexed for another 15 s and then centrifuged at 14,000 rpm for 2 min. The supernatant was added to a clean 1.5-ml microcentrifuge tube. Thirty microliters of proteinase K was added to the wall of each tube, followed by 400 μl of lysis buffer. Samples were vortexed for 15 s and then incubated at 70° C. for 10 min. After incubation, 400 μl of 100% ethanol was added to each sample and then mixed by vortexing. A total of 650 μl of the sample was then added to a spin column provided in the kit and centrifuged at 14,000 rpm for 1 min. The remaining volume of each sample was then added to the spin column and centrifuged under the same conditions. The samples were washed first with 500 μl of AW1 buffer and centrifuged at 14,000 rpm for 1 min and then with 500 μl of AW2 buffer and centrifuged at 14,000 rpm for 3 min. The DNA was eluted by adding 200 μl of elution buffer to the spin column and then centrifuging at 14,000 rpm for 1 min.

C. difficile VPI 10463 [3] = assay: Histopathology scoring of cecal and colonic tissues in the murine CDI model; format: in vivo, C57BL/6 mice
C. difficile VPI 10463 [4] = assay: Murine model of C. difficile infection and treatment (clinical score, survival, relapse), Example 1; conditions: for deaths prevented during the acute infection period: untreated infected survival 38%
C. difficile NAP1/BI/027 = conditions: infections due to NAP1/BI/027, treated subjects; cited from earlier work
IgG = tested on: IgG; set-up: species or system mice; conditions: mouse, in vivo
C. difficile = conditions: with drug use; cited from earlier work
[5] = second week postinoculation, infected control 2.7±0.9, uninfected 1.6±0.26
[6] = 20 mg/kg oral gavage daily for 5 days
[7] = first week after infection, 20 mg/kg oral gavage daily for 5 days, infected controls 5.7±0.9

SMILES: CNC(CC(C)C)C(=O)NC1C(=O)NC(CC(N)=O)C(=O)NC2C(=O)NC3C(=O)NC(C(=O)NC(C(=O)O)c4cc(O)cc(O)c4-c4cc3ccc4O)C(O)c3ccc(c(Cl)c3)Oc3cc2cc(c3OC2OC(CO)C(O)C(O)C2OC2CC(C)(N)C(O)C(C)O2)Oc2ccc(cc2Cl)C1O (stereo not drawn) [vancomycin]
- weight loss or increase in disease score [1]: did not show weight loss or an increase in disease score
- C. difficile DNA (tcdB) and toxin levels in cecal specimens (C. difficile VPI 10463 [2]; day 3 (peak of infection)): low
- clostridial burden in cecal specimens (C. difficile VPI 10463 [2]; day 6 (1 day after antibiotic was discontinued), persisted on days 9 and 12): increased clostridial burden
- histopathology score (C. difficile VPI 10463 [3]; at the peak of infection (day 3), uninfected control 2.2±1): 4.5±1.6
- histopathology score (C. difficile VPI 10463 [3]; [5]): 9.3±0.9
- deaths prevented during the acute infection period (C. difficile VPI 10463 [4]; [6]): 100%
- clinical score until recurrence of disease (C. difficile VPI 10463 [4]; 20 mg/kg/day for 5 or 10 days, both treatment groups): < 1
- infected mice that relapsed (C. difficile VPI 10463 [4]; 20 mg/kg/day for 5 days): 67%
- mortality rate, 10-day versus 5-day course (C. difficile VPI 10463 [4]; 20 mg/kg/day for 10 days): higher mortality rate
- time from end of treatment to relapse (C. difficile VPI 10463 [4]; 20 mg/kg/day, 5-day treatment course): 4 days
- time from discontinuation to relapse (C. difficile VPI 10463 [4]; 20 mg/kg/day, 10-day treatment course): 3 days
- weight loss and clinical outcomes by duration of treatment (C. difficile VPI 10463 [4]; 50 mg for 1 day only, versus 2, 3, 5 days): least weight loss and best clinical outcomes
- overall mortality rate (C. difficile VPI 10463 [4]; 50 mg given for 5 days, infected controls 75%): 100%
- deaths (C. difficile VPI 10463 [4]; by day 9 and onwards, after 5-day treatment at 20 mg/kg): 62%
- mean clinical score (C. difficile VPI 10463 [4]; [7]): 1.7±0.3
- mean clinical score (C. difficile VPI 10463 [4]; second week postinfection, 20 mg/kg daily for 5 days, surviving untreated infected mice 2.6): 6.2±0.2
- rate of recurrence (C. difficile NAP1/BI/027): 23.6%
- IgG levels, low dose versus high dose (IgG): higher IgG levels

SMILES: Cc1ncc([N+](=O)[O-])n1CCO [metronidazole]
- recurrence rate (C. difficile): ≤ 50%
- infected mice that relapsed (C. difficile VPI 10463 [4]; 20 mg/kg/day for 5 days): none
- weight loss or diarrhea while on antibiotics (C. difficile VPI 10463 [4]; 20 mg/kg/day for 5 days, infected mice): had diarrhea and weight loss during treatment
- mice that died of infection during treatment (C. difficile VPI 10463 [4]; 20 mg/kg/day for 5 days, 6 mice per group): one mouse

SMILES: CC(=O)Oc1ccccc1C(=O)Nc1ncc([N+](=O)[O-])s1 [nitazoxanide]
- histopathology score (C. difficile VPI 10463 [3]; first week postinoculation, 20 mg/kg daily, untreated infected 12.5±0.7, max score 15): 11.53±0.9
- histopathology score (C. difficile VPI 10463 [3]; [5]): 4.2±0.6
- deaths prevented during the acute infection period (C. difficile VPI 10463 [4]; [6]): 60%
- mean clinical score (C. difficile VPI 10463 [4]; [7]): 5±1
- additional deaths in post-acute infection period (C. difficile VPI 10463 [4]; second week postinfection, 20 mg/kg daily for 5 days): no additional deaths were noted
